Three compounds from patent US10316008B2, “KCNQ potassium channel agonist, and preparation method therefor and use thereof” (SHANGHAI INSTITUTE OF MATERIA MEDICA, CHINESE ACADEMY OF …, priority 2014, dated 2019) can be followed below.

Where a name gives a salt, the structure may show the parent alone. A value given as a limit tells only on which side of the number the result lay.

What all share (assay type): cell-based
For one experiment, the system named is KCNQ potassium channel. As to the kind of experiment: Whole-cell voltage-clamp recording in CHO-K1 cells transfected with KCNQ plasmid. Particulars: for I/I0: current enhancement factor, −10 mV testing voltage, compound concentration 10 μM, >1 activating, <1 inhibiting; for ΔV1/2: shift of V1/2, negative sign = left-ward shift of current activation curve, compound 10 μM, CHO-K1 cells. Here is the method: The culture medium for Chinese hamster oocytes (CHO-K1) (Culture Collection of Chinese Academy of Sciences): 50/50 DMEM/F-12 (Cellgro, Manassas, Va.), added with 10% fetal bovine serum (FBS) (Gibco, Australia) and 2 mM L-glutamic acid (Invitrogen). […] Lipofectamine 2000™ agent (Invitrogen) was used for Transfection according to the protocol thereof. GFP (green fluorescent protein) was cotransfected to be used as a indication of successful converting into KCNQ plasmid.
Whole-cell voltage-clamp recording was performed on an Axopatch-200B amplifier (Molecular Devices, Sunnyvale, Calif.) at room temperature. The electrode was made by drawing borosilicate glass capillary (World Precision Instruments, Sarasota, Fla.). The electric resistance of the electrode filled with an intracellular fluid is 3 to 5 MΩ. […] During the recording, an extracellular fluid was continuously perfused by using a BPS perfusion system (ALA Scientific Instruments, Westburg, N.Y.). The composition of the extracellular fluid (1 L) was as follows: 140 mM NaCl(Sigma), 5 mM KCl(Sigma), 2 mM CaCl2(Sigma), 1.5 mM MgCl2(Sigma), 10 mM HEPES(Sigma) and 10 mM glucose(Sigma) (pH was adjusted to 7.4 with NaOH). […] Series resistors compensate 60 to 80%. Up to date, multivoltage scheme was generally adopted, wherein the clamp voltage was set at −80 mV, stimulating voltage was a gradient voltage from −90 mV to 60 mV with interval of 10 mV, and the stimulating time for each voltage was 2000 ms.
V1/2 is the voltage at which 50% of cells were activated, ΔV1/2 is the shift amount of V1/2, negative sign (−) represents a left-ward shift of the current activation curve. I/I0 represents the current enhancement factor, wherein, I0 is the maximum induced current produced under stimulation of −10 mV testing voltage after administrating cells with blank extracellular fluid, I is the maximum induced current produced under stimulation of −10 mV testing voltage after administrating the drug (the compound concentration was 10 μM), I/I0>1 represents activating activity, and I/I0<1 represents inhibiting activity. N is the number of tested cells. NT represents non-tested.

Experiment [1] has as its target T1, KCNQ2 homotetramer channel (Homo sapiens, UniProt O43526).
T1 construct: expressed in transfected cells; host or cells: CHO-K1
Put plainly: KCNQ2 channel dose-response curve in CHO-K1 cells transfected with KCNQ2 plasmid. Here is the method: (§1) The culture medium for Chinese hamster oocytes (CHO-K1) (Culture Collection of Chinese Academy of Sciences): 50/50 DMEM/F-12 (Cellgro, Manassas, Va.), added with 10% fetal bovine serum (FBS) (Gibco, Australia) and 2 mM L-glutamic acid (Invitrogen). Expression of KCNQ channels: 24 h before transfection, CHO-K1 spreaded on a dish with a diameter of 60 mm. Lipofectamine 2000™ agent (Invitrogen) was used for Transfection according to the protocol thereof. GFP (green fluorescent protein) was cotransfected to be used as a indication of successful converting into KCNQ plasmid.
(§2) Whole-cell voltage-clamp recording was performed on an Axopatch-200B amplifier (Molecular Devices, Sunnyvale, Calif.) at room temperature. The electrode was made by drawing borosilicate glass capillary (World Precision Instruments, Sarasota, Fla.). The electric resistance of the electrode filled with an intracellular fluid is 3 to 5 MΩ. The composition of the intracellular fluid (1 L) was as follows: 145 mM KCl(Sigma), 1 mM MgCl2(Sigma), 5 mM EGTA(Sigma), 10 mM HEPES(Sigma) and 5 mM MgATP(Sigma) (pH was adjusted to 7.3 with KOH). During the recording, an extracellular fluid was continuously perfused by using a BPS perfusion system (ALA Scientific Instruments, Westburg, N.Y.). The composition of the extracellular fluid (1 L) was as follows: 140 mM NaCl(Sigma), 5 mM KCl(Sigma), 2 mM CaCl2(Sigma), 1.5 mM MgCl2(Sigma), 10 mM HEPES(Sigma) and 10 mM glucose(Sigma) (pH was adjusted to 7.4 with NaOH). Electric signal was filtered at 1 kHz and further converted into digital signal by using pClamp 9.2 software (Molecular Devices, Sunnyvale, Calif.) in DigiData 1322A. Series resistors compensate 60 to 80%. Up to date, multivoltage scheme was generally adopted, wherein the clamp voltage was set at −80 mV, stimulating voltage was a gradient voltage from −90 mV to 60 mV with interval of 10 mV, and the stimulating time for each voltage was 2000 ms.
(§3) The experimental procedure was the same as that in Electrophysiological Example 1. […]

In experiment [2] the target is T2, KCNQ2/3 heterotetramer channel (Homo sapiens, UniProt O43525+O43526).
T2 construct: expressed in transfected cells; host or cells: CHO-K1
Put plainly: KCNQ2/3 heterotetramer channel dose-response curve in CHO-K1 cells cotransfected with KCNQ2 and KCNQ3 plasmids. The protocol: as §1, §2, §3

T1 sequence (O43526 whole entry): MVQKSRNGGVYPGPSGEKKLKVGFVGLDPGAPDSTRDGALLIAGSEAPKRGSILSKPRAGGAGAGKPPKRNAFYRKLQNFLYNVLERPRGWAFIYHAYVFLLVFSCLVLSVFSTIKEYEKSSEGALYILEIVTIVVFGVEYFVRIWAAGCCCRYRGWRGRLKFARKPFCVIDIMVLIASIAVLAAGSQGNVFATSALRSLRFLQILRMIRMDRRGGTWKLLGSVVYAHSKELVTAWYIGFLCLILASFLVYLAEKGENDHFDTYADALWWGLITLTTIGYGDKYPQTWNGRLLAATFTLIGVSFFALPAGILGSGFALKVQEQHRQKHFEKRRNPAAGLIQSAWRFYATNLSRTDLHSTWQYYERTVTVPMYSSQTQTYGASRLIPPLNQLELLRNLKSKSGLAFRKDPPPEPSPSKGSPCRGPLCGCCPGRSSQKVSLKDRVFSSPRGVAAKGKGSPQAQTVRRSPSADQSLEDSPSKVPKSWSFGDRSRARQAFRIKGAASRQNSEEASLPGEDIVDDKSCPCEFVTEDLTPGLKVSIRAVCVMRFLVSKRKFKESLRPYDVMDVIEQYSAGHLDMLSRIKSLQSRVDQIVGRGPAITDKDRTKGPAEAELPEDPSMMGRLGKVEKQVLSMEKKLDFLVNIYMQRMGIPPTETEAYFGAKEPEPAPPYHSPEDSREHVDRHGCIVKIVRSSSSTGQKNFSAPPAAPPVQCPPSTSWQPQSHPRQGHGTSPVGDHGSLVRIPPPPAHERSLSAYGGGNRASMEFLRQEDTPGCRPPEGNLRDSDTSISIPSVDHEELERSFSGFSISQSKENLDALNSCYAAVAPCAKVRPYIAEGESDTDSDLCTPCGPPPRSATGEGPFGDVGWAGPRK

Take `C#CCN(Cc1ccc(F)cc1)c1cc(C)c(NC(=O)OC)c(C)c1.Cl` [K43•HCl, methyl 4-(N-parafluorobenzyl-N-propargyl-amino)-2,6-dimethylphenylaminoformate hydrochloride]: in the experiment on KCNQ potassium channel, the I/I0 turned out to be 4.75 ± 1.29 and the ΔV1/2 is given as −38.52 ± 1.67 mV.

Regarding `C#CCN(Cc1ccc(F)cc1)c1ccc(NC(=O)OC)c(C)c1` [K41•HCl], in the experiment on KCNQ potassium channel, the I/I0 was determined as 4.8 ± 0.73 and the ΔV1/2 is on record as −23.28 ± 1.37 mV.

As for `C#CCN(Cc1ccc(F)cc1)c1cc(C)c(NC(=O)OC)c(C)c1` [Compound K43, methyl 4-(N-parafluorobenzyl-N-propargyl-amino)-2,6-dimethylphenylaminoformate], the concentration giving a half-maximal response (EC50) – broadly, the midpoint of the concentration-response curve – in experiment [1] (FIG. 1, Boltzmann fit, read-out: EC50) worked out at 1.53 nM; in experiment [2] (FIG. 2, Boltzmann fit), 49 nM. Besides, in experiment [1] (fold of RTG), the “agonistic activity on KCNQ2 homotetramer channel relative to RTG” value was “more than 800 times”. The “agonistic activity on KCNQ2/3 heterotetramer channel relative to K21” value in experiment [2] (fold of K21) is at least 20 times. In experiment [2] (fold of RTG), the “agonistic activity on KCNQ2/3 heterotetramer channel relative to RTG” value is listed as at least 30 times.
